Data taken from PMC10056443, “Derivatives of Amaryllidaceae Alkaloid Ambelline as Selective Inhibitors of Hepatic Stage of Plasmodium berghei Infection In Vitro” (Pharmaceutics, 2023).
Like-named read-outs stand apart in the source and are kept apart here.

Columns and labels:
[1] = test system: hepatic stage of P. berghei; assay: In vitro activity against P. berghei hepatic stages (luciferase-expressing sporozoites in Huh-7 cells, bioluminescence); type: cell-based, Plasmodium berghei; details: Plasmodium berghei; for activity at 1 µM / activity at 10 µM: DMSO = 100, read-out: INFECTION Ø screening
Description: Activity against the hepatic stage of P. berghei infection was assessed using the human hepatoma cell line Huh-7 (deposited at the Japanese Collection of Research Bioresources under JCRB0403). The protocol was previously comprehensively described by Prudêncio et al. and by Ploemen et al.. […] Cells were seeded in 96-well plates at a density of 1 × 10^4 cells per well in 100 µL of culture medium and incubated at 37 °C with 5% CO2 for approximately 18 h. […] The culture medium was substituted by infection medium with diluted compounds 1 hour in advance of infection. Luciferase-expressing P. berghei sporozoites (PbA-LuciGFPcon spz) were freshly obtained through the dissection of salivary glands from infected female Anopheles stephensi mosquitoes. Sporozoites were added to the cells at 1:1 ratio, i.e., 1 × 10^4 sporozoites were added per well, and then subjected to centrifugation at 1800× g for 5 min. The plate was then incubated for 46 h at 37 °C with 5% CO2, at which time Huh-7 cell confluency was indirectly assessed by the alamarBlue assay (Invitrogen, Waltham, MA, USA), as reported in the manufacturer’s protocol. Parasite load was assessed 48 h post-infection by a bioluminescence assay, as reported by the manufacturer (Biotium, Fremont, CA, USA). GraphPad Prism 8 (GraphPad Software, Inc., La Jolla, CA, USA) was used to obtain IC50 values using nonlinear regression analysis to fit the dose-response curves normalized results.

Huh-7 cell line = assay: Huh-7 cell confluency by alamarBlue assay during hepatic-stage test; type: cell-based
Description: Activity against the hepatic stage of P. berghei infection was assessed using the human hepatoma cell line Huh-7 (deposited at the Japanese Collection of Research Bioresources under JCRB0403). The protocol was previously comprehensively described by Prudêncio et al. and by Ploemen et al.. Briefly, cell culture medium consisted of 1640 RPMI medium supplemented with 10% v/v fetal calf serum, 1% v/v L-glutamine, 1% v/v nonessential amino acids, 1% v/v penicillin/streptomycin, and 10 mM HEPES, pH 7. Cells were seeded in 96-well plates at a density of 1 × 10^4 cells per well in 100 µL of culture medium and incubated at 37 °C with 5% CO2 for approximately 18 h. […] The culture medium was substituted by infection medium with diluted compounds 1 hour in advance of infection. Luciferase-expressing P. berghei sporozoites (PbA-LuciGFPcon spz) were freshly obtained through the dissection of salivary glands from infected female Anopheles stephensi mosquitoes. Sporozoites were added to the cells at 1:1 ratio, i.e., 1 × 10^4 sporozoites were added per well, and then subjected to centrifugation at 1800× g for 5 min. The plate was then incubated for 46 h at 37 °C with 5% CO2, at which time Huh-7 cell confluency was indirectly assessed by the alamarBlue assay (Invitrogen, Waltham, MA, USA), as reported in the manufacturer’s protocol. Parasite load was assessed 48 h post-infection by a bioluminescence assay, as reported by the manufacturer (Biotium, Fremont, CA, USA). GraphPad Prism 8 (GraphPad Software, Inc., La Jolla, CA, USA) was used to obtain IC50 values using nonlinear regression analysis to fit the dose-response curves normalized results.

[2] = Cytotoxicity assessment in vitro (MTT assay); type: cell-based; details: human
Description: (§1) HepG2 cells of human hepatocellular carcinoma (ATCC HB-8065; passage 20–25), purchased from Health Protection Agency Culture Collections (ECACC, Salisbury, UK), were cultured in Minimum Essential Medium Eagle supplemented with 10% v/v fetal bovine serum and 1% v/v L-glutamine solution (Sigma-Aldrich, St. Louis, MO, USA) at 37 °C in a humidified atmosphere containing 5% CO2. For passaging, the cells were treated with trypsin/EDTA (Sigma-Aldrich, St. Louis, MO, USA) at 37 °C and then harvested. For the cytotoxicity evaluation, the cells treated with the test substances were used, while untreated HepG2 cells served as a control group. The cells were seeded in a 96-well plate at a density of 1 × 10^4 cells per well and incubated for 24 h. All tested compounds were dissolved in DMSO to prepare 10 mM stock solutions and diluted to the desired concentration just before the cell treatment. Cytotoxicity of all studied derivatives was screened at 10 μM concentration, and all samples were measured in triplicates. Positive and negative controls were also included. Plates were incubated for 24 h in a humidified atmosphere containing 5% CO2 at 37 °C. After the incubation, a solution of thiazolyl blue tetrazolium bromide (Sigma-Aldrich, St. Louis, MO, USA) in RPMI 1640 medium without phenol red (BioTech, Prague, Czech Republic) was added and incubated for 3 h in a humidified atmosphere containing 5% CO2 at 37 °C. Afterwards, formazan crystals were dissolved in DMSO, and the absorbance of samples was recorded at 570 nm (Synergy Neo2 Multi-Mode Reader NEO2SMALPHAB; BioTek, Winooski, VT, USA).

HepG2 cells = assay: Cytotoxicity assessment in vitro (MTT assay); type: cell-based
Description: as §1

[3] = test system: P. falciparum NF54 ring-stage synchronized cultures; assay: In vitro activity against P. falciparum blood stages (flow cytometry, SYBR green I); type: cell-based, Plasmodium falciparum; details: Control = 7.76333, 48 h
Description: Activity against the blood stage of P. falciparum infection was assessed by flow cytometry analysis following the incubation of either test compounds or the drug vehicle (DMSO) with ring-stage synchronized parasite cultures, as previously described. Stock solutions of the test compounds, as well as of the positive control compound chloroquine, were prepared in DMSO and diluted to test concentrations in complete malaria culture medium (CMCM), i.e., 1640 RPMI medium supplemented with 25 mM HEPES, 2.4 mM L-glutamine, 50 µg/mL gentamicin, 0.5% w/v Albumax, 11 mM glucose, 1.47 mM hypoxanthine, and 37.3 mM NaHCO3. Samples at tested concentration were then incubated with ring-stage synchronized cultures of P. falciparum NF54 at 2.5% hematocrit and at approximately 1% parasitemia in 96-well plates at 37 °C in a 5% CO2 and 5% O2 atmosphere. Forty-eight hours post incubation, parasite load was assessed by flow cytometry, upon staining with the DNA-specific dye SYBR green I. Approximately 100,000 events were analyzed in each flow cytometry measurement.

[4] = at 1 μM, DMSO = 100, in % (unit assumed)
[5] = at 10 μM, DMSO = 100, in % (unit assumed)

SMILES	activity at 1 µM ([1]; Huh-7, 48 h) [%]	activity at 10 µM ([1]; Huh-7, 48 h) [%]	CELL CONFLUENCY Ø screening (Huh-7 cell line; human, 46 h, 1 µM, pH 7)	CELL CONFLUENCY Ø screening (Huh-7 cell line; human, 46 h, 10 µM, pH 7)	further results
COc1cc(NC(C)CCCN)c2ncccc2c1 (stereo not drawn) [Primaquine, reference compound]	–	–	–	–	IC50 ([1]; Huh-7, 48 h, read-out: IC50 P. berghei): 5.74 ± 0.86 µM
COc1ccc(C(=O)OC2CN3Cc4cc5c(cc4C24C=CC(OC)CC34)OCO5)cc1OC (stereo not drawn) [29h, 11-O-(3,4-dimethoxybenzoyl)haemanthamine]	90.4	46	101.7	100.3	–
COc1ccccc1C(=O)O[C@@H]1CN2Cc3c(cc4c(c3OC)OCO4)[C@@]13C=C[C@H](OC)C[C@@H]23 [28i, 11-O-(2-Methoxybenzoyl)ambelline]	60.6	1.65	140.5	135.7	IC50 ([1]; Huh-7, replicate 1, unit (Table 1: µM), read-out: Antiplasmodial activity - IC50 determination, 1. measurement): 1.53 µM; IC50 ([1]; Huh-7, replicate 2, unit (Table 1: µM), read-out: Antiplasmodial activity - IC50 determination, 2. measurement): 2.98 µM; IC50 ([1]; Huh-7, replicate 3, unit (Table 1: µM), read-out: Antiplasmodial activity - IC50 determination, 3. measurement): 2.7 µM; IC50 ([1]; hepatic stage, Huh-7 cells, parasite load 48 h post-infection, read-out: IC50 P. berghei): 2.4 ± 0.77 µM; viability at 24 h, 10 µM [2]: 86 ± 2%; 1. screening of cytotoxic potential, HepG2 cell line (HepG2 cells; human, 24 h, 10 µM): 85.49; 2. screening of cytotoxic potential, HepG2 cell line (HepG2 cells; human, 24 h, 10 µM): 83.85; 3. screening of cytotoxic potential, HepG2 cell line (HepG2 cells; human, 24 h, 10 µM): 87.77; Ø screening, HepG2 (sheet Graphs) (HepG2 cells; human, 24 h, 10 µM): 85.7
COc1ccc(C(=O)OC2CN3Cc4cc5c(cc4C24C=CC(OC)CC34)OCO5)cc1 (stereo not drawn) [29g, 11-O-(4-methoxybenzoyl)haemanthamine]	49.1	42.6	95.31	88.51	–
COc1cccc(C(=O)OC2CN3Cc4cc5c(cc4C24C=CC(OC)CC34)OCO5)c1 (stereo not drawn) [29f, 11-O-(3-methoxybenzoyl)haemanthamine]	76.1	29.8	–	–	CELL CONFLUENCY Ø screening (Huh-7 cell line; [4]): 130.9; CELL CONFLUENCY Ø screening (Huh-7 cell line; [5]): 134.6
COC1C=CC23c4cc5c(cc4CN(CC2OC(=O)c2cccc(C)c2)C3C1)OCO5 (stereo not drawn) [29c, 11-O-(3-methylbenzoyl)haemanthamine]	96.8	28.3	124.3	135.7	–
COC1C=CC23c4cc5c(cc4CN(CC2OC(=O)c2cccc([N+](=O)[O-])c2)C3C1)OCO5 (stereo not drawn) [29j, 11-O-(3-nitrobenzoyl)haemanthamine]	78.2	48.5	100.8	94.5	–
COc1cc(OC)cc(C(=O)OC2CN3Cc4cc5c(cc4C24C=CC(OC)CC34)OCO5)c1 (stereo not drawn) [29i, 11-O-(3,5-dimethoxybenzoyl)haemanthamine]	64	27.5	123.1	120.8	–
COc1cccc2c1C(=O)c1c(O)c3c(c(O)c1C2=O)C[C@@](O)(C(=O)CO)C[C@@H]3O[C@H]1C[C@H](N)[C@H](O)[C@H](C)O1 [Doxorubicine, reference compound]	–	–	–	–	viability at 24 h, 10 µM ([2]; HepG2 cells, c = 10 µM, 24 h, MTT, read-out: HepG2 % of cell viability compared to non-treated control (100%)): 66 ± 8%; Ø screening, HepG2 (sheet Graphs) (HepG2 cells; c = 10 μM, DMSO = 100, in %): 65.91; 1. screening of cytotoxic potential, HepG2 cell line (HepG2 cells; c = 10 μM, replicate 1, in %): 62.5; 2. screening of cytotoxic potential, HepG2 cell line (HepG2 cells; c = 10 μM, replicate 2, in %): 75.09; 3. screening of cytotoxic potential, HepG2 cell line (HepG2 cells; c = 10 μM, replicate 3, in %): 60.13
CCN(CC)CCCC(C)Nc1ccnc2cc(Cl)ccc12 (stereo not drawn) [CQ, chloroquine, reference compound]	–	–	–	–	Ø screening, blood stage parasite load ([3]; at 10 nM): 8.54; Ø screening, blood stage parasite load ([3]; at 500 nM): 2.057; Ø screening, blood stage parasite load ([3]; at 100 nm): 2.187
COC1C=CC23c4cc5c(cc4CN(CC2OC(=O)C(C)C)C3C1)OCO5 (stereo not drawn) [29b, 11-O-isobutanoylhaemanthamine]	71.4	70.6	–	–	CELL CONFLUENCY Ø screening (Huh-7 cell line; [4]): 106.7; CELL CONFLUENCY Ø screening (Huh-7 cell line; [5]): 111.9
COc1ccccc1C(=O)OC1CN2Cc3cc4c(cc3C13C=CC(OC)CC23)OCO4 (stereo not drawn) [29e, 11-O-(2-methoxybenzoyl)haemanthamine]	67.6	28.8	124.9	167.5	–
CCC(=O)OC1CN2Cc3cc4c(cc3C13C=CC(OC)CC23)OCO4 (stereo not drawn) [29a, 11-O-propionylhaemanthamine]	87.6	71.9	–	–	CELL CONFLUENCY Ø screening (Huh-7 cell line; [4]): 95.58; CELL CONFLUENCY Ø screening (Huh-7 cell line; [5]): 90.95
COC1C=CC23c4cc5c(cc4CN(CC2OC(=O)c2ccc(C)cc2)C3C1)OCO5 (stereo not drawn) [29d, 11-O-(4-methylbenzoyl)haemanthamine]	47.8	29	120.6	113.7	–
COC1C=CC23c4cc5c(cc4CN(CC2OC(=O)c2ccc([N+](=O)[O-])cc2)C3C1)OCO5 (stereo not drawn) [29k, 11-O-(4-nitrobenzoyl)haemanthamine]	63.6	71	–	–	CELL CONFLUENCY Ø screening (Huh-7 cell line; [4]): 104.8; CELL CONFLUENCY Ø screening (Huh-7 cell line; [5]): 91.29
